{"source": "ChEMBL document CHEMBL5352493", "about": "“Dual inhibitors of ASK1 and PDK1 kinases: Design, synthesis, molecular docking and mechanism studies of N-benzyl pyridine-2-one containing derivatives as anti-fibrotic agents” (Eur J Med Chem, 2023)", "key": {"[1]": {"tested_on": "HFL1", "test": "Induction of apoptosis in HLF1 cells assessed as decrease in antiapoptotic Bcl-2 protein at 7.5 to 15 uM for 24 hrs by Western blotting analysis", "format": "functional, cell-based", "details": "Homo sapiens, dose 7.5-15 µM"}, "[2]": {"tested_on": "HFL1", "test": "Induction of apoptosis in HLF1 cells assessed as necrotic cells at 22.5 uM incubated for 24 hrs measured by annexinV-FITC/PI based flow cytometric analysis (reference value: 0%)", "format": "functional, Homo sapiens"}, "[3]": {"tested_on": "HFL1", "test": "Induction of apoptosis in HLF1 cells assessed as late apoptotic cells at 22.5 uM incubated for 24 hrs measured by annexinV-FITC/PI based flow cytometric analysis (reference value: 0.08%)", "format": "functional, Homo sapiens"}, "[4]": {"target": "T1, Mitogen-activated protein kinase kinase kinase 5 (Homo sapiens, UniProt Q99683)", "T1 sequence (Q99683 whole entry)": "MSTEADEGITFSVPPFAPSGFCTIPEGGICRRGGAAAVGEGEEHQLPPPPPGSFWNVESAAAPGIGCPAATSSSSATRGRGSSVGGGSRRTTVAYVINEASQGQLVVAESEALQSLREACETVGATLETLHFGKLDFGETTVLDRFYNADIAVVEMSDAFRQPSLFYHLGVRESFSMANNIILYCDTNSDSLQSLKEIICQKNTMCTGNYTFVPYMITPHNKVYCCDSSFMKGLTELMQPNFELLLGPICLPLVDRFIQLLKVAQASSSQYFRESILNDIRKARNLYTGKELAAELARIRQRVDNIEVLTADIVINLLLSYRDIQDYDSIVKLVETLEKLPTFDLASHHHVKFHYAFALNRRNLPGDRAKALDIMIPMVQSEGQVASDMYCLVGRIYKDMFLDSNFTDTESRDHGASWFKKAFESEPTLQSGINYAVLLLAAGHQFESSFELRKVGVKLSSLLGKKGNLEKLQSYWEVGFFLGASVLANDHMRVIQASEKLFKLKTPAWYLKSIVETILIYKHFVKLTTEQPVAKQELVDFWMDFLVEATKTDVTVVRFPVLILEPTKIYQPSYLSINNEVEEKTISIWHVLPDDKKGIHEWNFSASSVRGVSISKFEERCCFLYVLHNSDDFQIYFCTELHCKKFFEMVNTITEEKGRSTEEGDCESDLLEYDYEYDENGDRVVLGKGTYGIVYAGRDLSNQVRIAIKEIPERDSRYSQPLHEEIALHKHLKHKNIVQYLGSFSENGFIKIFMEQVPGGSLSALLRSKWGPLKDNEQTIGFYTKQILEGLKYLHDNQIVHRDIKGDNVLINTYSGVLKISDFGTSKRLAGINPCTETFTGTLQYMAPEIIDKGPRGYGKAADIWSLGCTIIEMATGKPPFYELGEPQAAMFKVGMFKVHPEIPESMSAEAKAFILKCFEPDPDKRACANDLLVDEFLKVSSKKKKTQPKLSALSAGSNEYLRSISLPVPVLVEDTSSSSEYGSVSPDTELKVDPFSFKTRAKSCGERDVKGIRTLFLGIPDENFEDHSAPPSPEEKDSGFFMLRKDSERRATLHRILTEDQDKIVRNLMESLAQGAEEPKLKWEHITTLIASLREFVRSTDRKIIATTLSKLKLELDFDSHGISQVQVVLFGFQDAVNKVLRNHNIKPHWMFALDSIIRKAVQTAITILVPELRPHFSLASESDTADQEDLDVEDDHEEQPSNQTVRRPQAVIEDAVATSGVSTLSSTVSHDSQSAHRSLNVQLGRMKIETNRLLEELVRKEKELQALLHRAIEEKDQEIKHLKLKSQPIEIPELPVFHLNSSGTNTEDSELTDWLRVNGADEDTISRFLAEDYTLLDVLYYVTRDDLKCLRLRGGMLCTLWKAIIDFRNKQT", "test": "Inhibition of human recombinant ASK1 using MBP as substrate preincubated for 1 hr followed by reagent addition incubated for 40 mins by ATP-Glo kinase assay"}, "[5]": {"tested_on": "HFL1", "test": "Antifibrotic activity in TGF-beta1 induced HLF1 cells assessed as decrease in alpha SMA expression level measured at 7.5 to 15 uM after 24 hrs by Western blotting analysis", "format": "functional, cell-based", "details": "Homo sapiens, dose 7.5-15 µM"}, "[6]": {"tested_on": "HFL1", "test": "Induction of apoptosis in HLF1 cells assessed as necrotic cells at 15 uM incubated for 24 hrs measured by annexinV-FITC/PI based flow cytometric analysis (reference value: 0%)", "format": "functional, Homo sapiens"}, "[7]": {"tested_on": "HFL1", "test": "Induction of apoptosis in HLF1 cells assessed as viable cells at 7.5 uM incubated for 24 hrs measured by annexinV-FITC/PI based flow cytometric analysis (reference value: 88.3%)", "format": "functional", "details": "Homo sapiens, read-out: Activity"}, "[8]": {"tested_on": "HFL1", "test": "Induction of apoptosis in HLF1 cells assessed as necrotic cells at 7.5 uM incubated for 24 hrs measured by annexinV-FITC/PI based flow cytometric analysis (reference value: 0%)", "format": "functional, Homo sapiens"}, "[9]": {"test": "Antiproliferative against rat NRK-49F cells measured after 48 hrs by CCK8 assay", "format": "toxicity, cell-based"}, "[10]": {"tested_on": "HFL1", "test": "Induction of apoptosis in HLF1 cells assessed as late apoptotic cells at 7.5 uM incubated for 24 hrs measured by annexinV-FITC/PI based flow cytometric analysis (reference value: 0.08%)", "format": "functional, Homo sapiens"}, "[11]": {"tested_on": "HFL1", "test": "Downregulation of phosphorylated ASK1 in TGF-beta1 induced HFL1 cells at 7.5 to 15 uM for 24 hrs by Western blotting analysis", "format": "functional, cell-based", "details": "Homo sapiens, dose 7.5-15 µM"}, "[12]": {"tested_on": "HFL1", "test": "Downregulation of phosphorylated JNK in TGF-beta1 induced HFL1 cells at 7.5 to 15 uM for 24 hrs by Western blotting analysis", "format": "functional, cell-based", "details": "Homo sapiens, dose 7.5-15 µM"}, "[13]": {"tested_on": "HFL1", "test": "Antifibrotic activity in TGF-beta1 induced HLF1 cells assessed as decrease in collagen - I expression level measured at 7.5 to 15 uM after 24 hrs by Western blotting analysis", "format": "functional, cell-based", "details": "Homo sapiens, dose 7.5-15 µM"}, "[14]": {"test": "Antiproliferative against HLF1 cells measured after 48 hrs by CCK8 assay", "format": "toxicity, cell-based", "details": "human, HFL1 cells (description prints HLF1)"}, "[15]": {"tested_on": "HFL1", "test": "Induction of apoptosis in HLF1 cells assessed as early apoptotic cells at 22.5 uM incubated for 24 hrs measured by annexinV-FITC/PI based flow cytometric analysis (reference value: 11.6%)", "format": "functional, Homo sapiens"}, "[16]": {"tested_on": "HFL1", "test": "Induction of apoptosis in HLF1 cells assessed as late apoptotic cells at 15 uM incubated for 24 hrs measured by annexinV-FITC/PI based flow cytometric analysis (reference value: 0.08%)", "format": "functional, Homo sapiens"}, "[17]": {"test": "Antiproliferative against rat HSC-T6 cells measured after 48 hrs by CCK8 assay", "format": "toxicity, cell-based"}, "[18]": {"tested_on": "HFL1", "test": "Downregulation of phosphorylated PDK1 in TGF-beta1 induced HFL1 cells at 7.5 to 15 microM for 24 hrs by Western blotting analysis", "format": "functional, cell-based", "details": "Homo sapiens, dose 7.5-15 µM"}, "[19]": {"tested_on": "HFL1", "test": "Antifibrotic activity in TGF-beta1 induced HLF1 cells assessed as decrease in phosphorylated smad2 level measured at 7.5 to 15 uM after 24 hrs by Western blotting analysis", "format": "functional, cell-based", "details": "Homo sapiens, dose 7.5-15 µM"}, "[20]": {"tested_on": "HFL1", "test": "Downregulation of phosphorylated p38 in TGF-beta1 induced HFL1 cells at 7.5 to 15 uM for 24 hrs by Western blotting analysis", "format": "functional, cell-based", "details": "Homo sapiens, dose 7.5-15 µM"}, "[21]": {"tested_on": "HFL1", "test": "Antifibrotic activity in TGF-beta1 induced HLF1 cells assessed as decrease in phosphorylated smad3 level measured at 7.5 to 15 uM after 24 hrs by Western blotting analysis", "format": "functional, cell-based", "details": "Homo sapiens, dose 7.5-15 µM"}, "[22]": {"tested_on": "HFL1", "test": "Induction of apoptosis in HLF1 cells assessed as early apoptotic cells at 15 uM incubated for 24 hrs measured by annexinV-FITC/PI based flow cytometric analysis (reference value: 11.6%)", "format": "functional, Homo sapiens"}, "[23]": {"tested_on": "HFL1", "test": "Induction of apoptosis in HLF1 cells assessed as viable cells at 15 uM incubated for 24 hrs measured by annexinV-FITC/PI based flow cytometric analysis (reference value: 88.3%)", "format": "functional", "details": "Homo sapiens, read-out: Activity"}, "[24]": {"tested_on": "HFL1", "test": "Induction of apoptosis in HLF1 cells assessed as early apoptotic cells at 7.5 uM incubated for 24 hrs measured by annexinV-FITC/PI based flow cytometric analysis (reference value: 11.6%)", "format": "functional, Homo sapiens"}, "[25]": {"tested_on": "HFL1", "test": "Induction of apoptosis in HLF1 cells assessed as viable cells at 22.5 uM incubated for 24 hrs measured by annexinV-FITC/PI based flow cytometric analysis (reference value: 88.3%)", "format": "functional", "details": "Homo sapiens, read-out: Activity"}, "[26]": {"test": "Antiproliferative against human BEAS-2B cells measured after 48 hrs by CCK8 assay", "format": "toxicity, cell-based"}, "[27]": {"tested_on": "HFL1", "test": "Downregulation of phosphorylated Akt in TGF-beta1 induced HFL1 cells at 7.5 microM for 24 hrs by Western blotting analysis", "format": "functional, cell-based", "details": "Homo sapiens"}}, "note": "The source made the active and inactive calls. The calls are words filed in the database; no cut-off is given here."}
{"smiles": "O=C(Nc1cccc(-c2nncn2C2CC2)n1)c1cc(-c2cnn(C3CC3)c2)cn(Cc2ccccc2F)c1=O", "values": [{"measurement": "Activity", "setting": "[1]", "value": "Active"}, {"measurement": "Activity", "setting": "[2]", "value": 0.015, "unit": "%"}, {"measurement": "Activity", "setting": "[3]", "value": 0.104, "unit": "%"}, {"measurement": "IC50", "setting": "[4]", "value": 1.73, "unit": "nM"}, {"measurement": "Activity", "setting": "[5]", "value": "Dose-Dependent Effect"}, {"measurement": "Activity", "setting": "[6]", "value": 0, "unit": "%"}, {"measurement": "viability at 7.5 µM", "setting": "[7]", "value": 71.2, "unit": "%"}, {"measurement": "Activity", "setting": "[8]", "value": 0, "unit": "%"}, {"measurement": "IC50 at 48 h", "setting": "[9]", "value": 21.1, "unit": "µM"}, {"measurement": "Activity", "setting": "[10]", "value": 0.083, "unit": "%"}, {"measurement": "Activity", "setting": "[11]", "value": "Active"}, {"measurement": "Activity", "setting": "[12]", "value": "Active"}, {"measurement": "Activity", "setting": "[13]", "value": "Dose-Dependent Effect"}, {"measurement": "IC50 at 48 h", "setting": "[14]", "value": 15.2, "unit": "µM"}, {"measurement": "Activity", "setting": "[15]", "value": 30.3, "unit": "%"}, {"measurement": "Activity", "setting": "[16]", "value": 0.079, "unit": "%"}, {"measurement": "IC50 at 48 h", "setting": "[17]", "value": 35.5, "unit": "µM"}, {"measurement": "Activity", "setting": "[18]", "value": "Dose-Dependent Effect"}, {"measurement": "Activity", "setting": "[19]", "value": "Active"}, {"measurement": "Activity", "setting": "[20]", "value": "Active"}, {"measurement": "Activity", "setting": "[21]", "value": "Active"}, {"measurement": "Activity", "setting": "[22]", "value": 32.3, "unit": "%"}, {"measurement": "viability at 15 µM", "setting": "[23]", "value": 67.6, "unit": "%"}, {"measurement": "Activity", "setting": "[24]", "value": 28.7, "unit": "%"}, {"measurement": "viability at 22.5 µM", "setting": "[25]", "value": 69.6, "unit": "%"}, {"measurement": "IC50 at 48 h", "setting": "[26]", "value": 36, "unit": "µM"}, {"measurement": "Activity", "setting": "[27]", "value": "Active"}]}
